The source made the active and inactive calls. No cut-off for these calls is given here.
Assays:
Haemonchus contortus [1] = assay: Nematocidal activity against Haemonchus contortus; format: functional
Saccharomyces cerevisiae = assay: Antifungal activity against Saccharomyces cerevisiae; format: functional
Bacillus subtilis = assay: Antibacterial activity against Bacillus subtilis; format: functional, organism-based
Haemonchus contortus [2] = assay: Nematocidal activity against Haemonchus contortus assessed as inhibition of larval development at L1 stage at high concentration; format: functional, organism-based
Escherichia coli = assay: Antibacterial activity against Escherichia coli; format: functional, organism-based

Row | SMILES | LD99 (Haemonchus contortus [1]) | LD99 (Saccharomyces cerevisiae) | Activity (Bacillus subtilis) | inhibition (Haemonchus contortus [2]) | Activity (Escherichia coli)
1 | C=C1C[C@](OC)([C@H](O)C(=O)N[C@@H](OC)[C@@H]2C[C@@H](OC)C(C)(C)[C@@H](CC(O)CCC/C=C/C=C/C(=O)OC)O2)O[C@H](C)[C@@H]1C (some centres not stated) [ONNAMIDE F METHYL ESTER] | 2.6 µg/mL | 5.2 µg/mL | – | – | –
2 | C=C1C[C@](OC)([C@H](O)C(=O)N[C@@H](OC)[C@@H]2C[C@@H](OC)C(C)(C)[C@@H](CC(O)CCC/C=C/C=C/C(=O)O)O2)O[C@H](C)[C@@H]1C (some centres not stated) [ONNAMIDE F] | 5.2 µg/mL | 1.4 µg/mL | inactive | Active | inactive

From ChEMBL document CHEMBL1150840, “Onnamide F: a new nematocide from a southern Australian marine sponge, Trachycladus laevispirulifer” (2001)
